Measurements from US4508663A, “Process for preparing thiosulfenamide derivatives of N-phosphonomethylglycinonitriles” (Monsanto Company, priority 1983, dated 1985).

How the values were obtained:
Test in all cases: post-emergence herbicidal activity, greenhouse
Type in all cases: in vivo
Barnyardgrass = system: Barnyardgrass
From the text: (§1) A good grade of top soil is placed in aluminum pans having holes in the bottom and compacted to a depth of 0.95 to 1.27 cm. from the top of the pan. A predetermined number of seeds of each of several dicotyledonous and monocotyledonous annual plant species and/or vegetative propagules for the perennial plant species are placed on the soil and pressed into the soil surface. The seeds and/or vegetative propagules are covered with soil and leveled. The pans are then placed on a sand bench in the greenhouse and watered from below as needed. After the plants reach the desired age (two to three weeks), each pan except for the control pans is removed individually to a spraying chamber and sprayed by means of an atomizer operating at a positive air pressure of approximately 1.46 kg/cm^2 absolute. The atomizer contains 6 ml. of a solution or suspension of the chemical. In that 6 ml., is an amount of a cyclohexanone emulsifying agent mixture to give a spray solution or suspension which contains about 0.4% by weight of the emulsifier. The spray solution or suspension contains a sufficient amount of the candidate chemical in order to give application rates corresponding to those set forth in the tables. The spray solution is prepared by taking an aliquot of a 1.0% by weight stock solution or suspension of the candidate chemical in an organic solvent such as acetone or tetrahydrofuran or in water. The emulsifying agent employed is a mixture comprising 35 weight percent butylamine dodecylbenzene sulfonate and 65 weight percent of a tall oil ethylene oxide condensate having about 11 moles of ethylene oxide per mole of tall oil. The pans are returned to the greenhouse and watered as before and the injury to the plants as compared to the control is observed at approximately two and four weeks as indicated in the tables under WAT and the results recorded. In some instances, the two-week observations are omitted.
(§2) The post-emergence herbicidal activity index used in Table I is as follows: […]

Cocklebur = system: Cocklebur
From the text: as §1, §2

Crabgrass = settings: Table II, 2 WAT
From the text: as §1, §2

Downy Brome = system: Downy Brome
From the text: as §1, §2

Hemp Sesbania = settings: Table II, 2 WAT
From the text: as §1, §2

Johnsongrass = settings: Table I, 4 WAT
From the text: as §1, §2

Lambsquarters = system: Lambsquarters
From the text: as §1, §2

Morningglory = system: Morningglory
From the text: as §1, §2

Panicum Spp = settings: Table II, 2 WAT
From the text: as §1, §2

Quackgrass = settings: Table I, 4 WAT
From the text: as §1, §2

Rice = settings: Table II, 2 WAT
From the text: as §1, §2

Smartweed = system: Smartweed
From the text: as §1, §2

Sorghum = settings: Table II, 2 WAT
From the text: as §1, §2

Soybean = settings: Table II, 2 WAT
From the text: as §1, §2

Sugar Beet = settings: Table II, 2 WAT
From the text: as §1, §2

Velvetleaf = system: Velvetleaf
From the text: as §1, §2

Wheat = settings: Table II, 2 WAT
From the text: as §1, §2

Wild Buckwheat = settings: Table II, 2 WAT
From the text: as §1, §2

Yellow Nutsedge = settings: Table I, 4 WAT
From the text: as §1, §2

Compound: N#CCN(CP(=O)(Oc1ccccc1)Oc1ccccc1)SSc1ccc(Cl)cc1 [XI]
- post-emergence herbicidal activity index (Barnyardgrass; Table I, 4 WAT, 5.6 kg/h): 0 (0-24% control)
- post-emergence herbicidal activity index (Barnyardgrass; Table I, 4 WAT, 11.2 kg/h): 3 (75-99% control)
- post-emergence herbicidal activity index (Barnyardgrass; Table II, 2 WAT, 1.12 kg/h): 0 (0-24% control)
- post-emergence herbicidal activity index (Barnyardgrass; Table II, 2 WAT, 5.6 kg/h): 1 (25-49% control)
- post-emergence herbicidal activity index (Cocklebur; Table I, 4 WAT, 5.6 kg/h): 0 (0-24% control)
- post-emergence herbicidal activity index (Cocklebur; Table I, 4 WAT, 11.2 kg/h): 3 (75-99% control)
- post-emergence herbicidal activity index (Cocklebur; Table II, 2 WAT, 1.12 kg/h): 0 (0-24% control)
- post-emergence herbicidal activity index (Cocklebur; Table II, 2 WAT, 5.6 kg/h): 3 (75-99% control)
- post-emergence herbicidal activity index (Crabgrass; 1.12 kg/h): 0 (0-24% control)
- post-emergence herbicidal activity index (Crabgrass; 5.6 kg/h): 3 (75-99% control)
- post-emergence herbicidal activity index (Downy Brome; Table I, 4 WAT, 5.6 kg/h): 0 (0-24% control)
- post-emergence herbicidal activity index (Downy Brome; Table I, 4 WAT, 11.2 kg/h): 1 (25-49% control)
- post-emergence herbicidal activity index (Downy Brome; Table II, 2 WAT, 1.12 kg/h): 0 (0-24% control)
- post-emergence herbicidal activity index (Downy Brome; Table II, 2 WAT, 5.6 kg/h): 1 (25-49% control)
- post-emergence herbicidal activity index (Hemp Sesbania; 1.12 kg/h): 0 (0-24% control)
- post-emergence herbicidal activity index (Hemp Sesbania; 5.6 kg/h): 1 (25-49% control)
- post-emergence herbicidal activity index (Johnsongrass; 5.6 kg/h): 0 (0-24% control)
- post-emergence herbicidal activity index (Johnsongrass; 11.2 kg/h): 2 (50-74% control)
- post-emergence herbicidal activity index (Lambsquarters; Table I, 4 WAT, 5.6 kg/h): 0 (0-24% control)
- post-emergence herbicidal activity index (Lambsquarters; Table I, 4 WAT, 11.2 kg/h): 4 (100% control)
- post-emergence herbicidal activity index (Lambsquarters; Table II, 2 WAT, 1.12 kg/h): 0 (0-24% control)
- post-emergence herbicidal activity index (Lambsquarters; Table II, 2 WAT, 5.6 kg/h): 3 (75-99% control)
- post-emergence herbicidal activity index (Morningglory; Table I, 4 WAT, 5.6 kg/h): 0 (0-24% control)
- post-emergence herbicidal activity index (Morningglory; Table I, 4 WAT, 11.2 kg/h): 1 (25-49% control)
- post-emergence herbicidal activity index (Morningglory; Table II, 2 WAT, 1.12 kg/h): 0 (0-24% control)
- post-emergence herbicidal activity index (Morningglory; Table II, 2 WAT, 5.6 kg/h): 1 (25-49% control)
- post-emergence herbicidal activity index (Panicum Spp; 1.12 kg/h): 0 (0-24% control)
- post-emergence herbicidal activity index (Panicum Spp; 5.6 kg/h): 1 (25-49% control)
- post-emergence herbicidal activity index (Quackgrass; 5.6 kg/h): 0 (0-24% control)
- post-emergence herbicidal activity index (Quackgrass; 11.2 kg/h): 2 (50-74% control)
- post-emergence herbicidal activity index (Rice; 1.12 kg/h): 0 (0-24% control)
- post-emergence herbicidal activity index (Rice; 5.6 kg/h): 1 (25-49% control)
- post-emergence herbicidal activity index (Smartweed; Table I, 4 WAT, 5.6 kg/h): 0 (0-24% control)
- post-emergence herbicidal activity index (Smartweed; Table I, 4 WAT, 11.2 kg/h): 2 (50-74% control)
- post-emergence herbicidal activity index (Smartweed; Table II, 2 WAT, 1.12 kg/h): 0 (0-24% control)
- post-emergence herbicidal activity index (Smartweed; Table II, 2 WAT, 5.6 kg/h): 1 (25-49% control)
- post-emergence herbicidal activity index (Sorghum; 1.12 kg/h): 0 (0-24% control)
- post-emergence herbicidal activity index (Sorghum; 5.6 kg/h): 1 (25-49% control)
- post-emergence herbicidal activity index (Soybean; 1.12 kg/h): 0 (0-24% control)
- post-emergence herbicidal activity index (Soybean; 5.6 kg/h): 1 (25-49% control)
- post-emergence herbicidal activity index (Sugar Beet; 1.12 kg/h): 1 (25-49% control)
- post-emergence herbicidal activity index (Sugar Beet; 5.6 kg/h): 3 (75-99% control)
- post-emergence herbicidal activity index (Velvetleaf; Table I, 4 WAT, 5.6 kg/h): 0 (0-24% control)
- post-emergence herbicidal activity index (Velvetleaf; Table I, 4 WAT, 11.2 kg/h): 2 (50-74% control)
- post-emergence herbicidal activity index (Velvetleaf; Table II, 2 WAT, 1.12 kg/h): 0 (0-24% control)
- post-emergence herbicidal activity index (Velvetleaf; Table II, 2 WAT, 5.6 kg/h): 3 (75-99% control)
- post-emergence herbicidal activity index (Wheat; 1.12 kg/h): 0 (0-24% control)
- post-emergence herbicidal activity index (Wheat; 5.6 kg/h): 2 (50-74% control)
- post-emergence herbicidal activity index (Wild Buckwheat; 1.12 kg/h): 0 (0-24% control)
- post-emergence herbicidal activity index (Wild Buckwheat; 5.6 kg/h): 3 (75-99% control)
- post-emergence herbicidal activity index (Yellow Nutsedge; 5.6 kg/h): 0 (0-24% control)
- post-emergence herbicidal activity index (Yellow Nutsedge; 11.2 kg/h): 1 (25-49% control)
